Test results published in patent publication US12509653B2, “Organ chip to model mammalian joint” (University of Pittsburgh—Of the Commonwealth System of …, priority 2017, dated 2025).

What was measured:
[1] = tested on: chondrocytes and osteoblasts in the bioreactor; test: RT-PCR marker expression in cartilage and bone chambers of the bioreactor under hormone stimulation; type: cell-based; conditions: progesterone progressively added to estradiol (week 3 and 4); higher when hormones directly applied to cartilage
Protocol: Differential expression of markers (as determined by RT-PCR) was evaluated in a control medium that contained no estrogen or progesterone (first bar), and then different concentrations of hormones supplied to the chambers during week 1 (w1: 0.1 nM estradiol), week 2 (w2: 1 nM estradiol), week 3 (w3: 1 nM estradiol and 10 nM progesterone), and week 4 (w4: 0.1 nM estradiol and 50 nM progesterone). Differential expression of markers was determined in a control medium that contained no estrogen or progesterone (first bar), and then different concentrations of hormones supplied to the cartilage chamber during week 1 (w1: 0.1 nM estradiol), week 2 (w2: 1 nM estradiol), week 3 (w3: 1 nM estradiol and 10 nM progesterone), and week 4 (w4: 0.1 nM estradiol and 50 nM progesterone).

[2] = tested on: synovial cells (SM); test: IL-1β stimulation of synovial cells in the microJoint (OA model), gene expression; type: cell-based, human; conditions: 10 ng/mL, 24 h
Protocol: To model OA in the microJoint, the pro-inflammatory cytokine interleukin (IL)-1β (10 ng/mL) was used to stimulate synovial cells for 24 h. Afterwards, IL-1β was withdrawn and inflamed synovium-conditioned medium was perfused through cartilage and FP tissues. […] M0/M1 macrophages can be introduced into the different tissues to investigate their interactions with other cells and implications on OA pathologies.
Different engineered joint tissues, including osteochondral complex (bone and cartilage), synovium, and fat pad were prepared as modules for convenient integration in the bioreactor. After maturation, they were integrated into a bioreactor (FIG. 28). Their interconnection was guided via directional fluidic flow of the culture medium to simulate in vivo physiology (FIG. 29). The bioreactors and accessories were manufactured by 3D printing. Micro-tissues were engineered by encapsulating P5 human MSCs in UV-photocrosslinked 15% methacrylated gelatin (GelMA), and differentiating and maturing them in different types of induction media. The health of individual tissues was assessed by real-time polymerase chain reaction (RT-PCR), histology and enzyme-linked immunosorbent assay (ELISA).

Compound | cartilage anabolic markers, progesterone added [1] | expression levels of major catabolic genes in SM [2]
CC(=O)[C@H]1CC[C@H]2[C@@H]3CCC4=CC(=O)CC[C@]4(C)[C@H]3CC[C@]12C [progesterone] | downregulation is still present | –
IL-1β: pro-inflammatory cytokine interleukin (IL)-1β used to stimulate synovial cells | – | significantly upregulated
